Assay: xn = mol fraction of the nth substance listed
Conditions: Liquid; for speed of sound: 101 kPa, Sing-around technique in a fixed-path interferometer; for mass density: 101.3 kPa, Vibrating tube method

CCCCCC(C)=O [2-heptanone] + CCN(CC)CC
Conditions | mass density [kg/m3] | speed of sound [m/s]
293.15 K, x1 = 0.0636 | 733.182 | 1141.8
293.15 K, x1 = 0.1061 | 737.185 | 1148.4
293.15 K, x1 = 0.1585 | 741.934 | 1156
293.15 K, x1 = 0.2077 | 746.426 | 1163.5
293.15 K, x1 = 0.2536 | 750.6 | 1170.4
293.15 K, x1 = 0.3091 | 755.621 | 1178.7
293.15 K, x1 = 0.3614 | 760.322 | 1186.6
293.15 K, x1 = 0.4043 | 764.18 | 1193.1
293.15 K, x1 = 0.4621 | 769.325 | 1201.9
293.15 K, x1 = 0.5022 | 772.887 | 1208
293.15 K, x1 = 0.5577 | 777.79 | 1216.3
293.15 K, x1 = 0.6078 | 782.199 | 1223.9
293.15 K, x1 = 0.6604 | 786.734 | 1231.8
293.15 K, x1 = 0.7001 | 790.167 | 1237.8
293.15 K, x1 = 0.749 | 794.387 | 1245
293.15 K, x1 = 0.7968 | 798.46 | 1252.1
293.15 K, x1 = 0.8517 | 803.051 | 1260.2
293.15 K, x1 = 0.9008 | 807.18 | 1267.3
293.15 K, x1 = 0.9507 | 811.366 | 1274.7
298.15 K, x1 = 0.0574 | 727.994 | 1119.4
298.15 K, x1 = 0.105 | 732.47 | 1126.8
298.15 K, x1 = 0.1619 | 737.667 | 1135.5
298.15 K, x1 = 0.2068 | 741.77 | 1142.1
298.15 K, x1 = 0.2598 | 746.582 | 1150.2
298.15 K, x1 = 0.3075 | 750.925 | 1157.5
298.15 K, x1 = 0.3578 | 755.443 | 1165.2
298.15 K, x1 = 0.4081 | 759.984 | 1172.9
298.15 K, x1 = 0.4548 | 764.166 | 1180.1
298.15 K, x1 = 0.5032 | 768.476 | 1187.5
298.15 K, x1 = 0.5545 | 773.017 | 1195.4
298.15 K, x1 = 0.6103 | 777.928 | 1204
298.15 K, x1 = 0.6579 | 782.088 | 1211.3
298.15 K, x1 = 0.6994 | 785.697 | 1217.6
298.15 K, x1 = 0.7484 | 789.941 | 1225.1
298.15 K, x1 = 0.8031 | 794.633 | 1233.3
298.15 K, x1 = 0.8576 | 799.228 | 1241.5
298.15 K, x1 = 0.9014 | 802.909 | 1247.9
298.15 K, x1 = 0.9462 | 806.662 | 1254.6
303.15 K, x1 = 0.0612 | 723.838 | 1100.1
303.15 K, x1 = 0.1056 | 727.95 | 1106.8
303.15 K, x1 = 0.1602 | 732.935 | 1115.1
303.15 K, x1 = 0.2068 | 737.166 | 1122.2
303.15 K, x1 = 0.2606 | 742.09 | 1130.5
303.15 K, x1 = 0.3086 | 746.453 | 1137.9
303.15 K, x1 = 0.3583 | 750.968 | 1145.7
303.15 K, x1 = 0.4082 | 755.492 | 1153.5
303.15 K, x1 = 0.4553 | 759.737 | 1160.8
303.15 K, x1 = 0.5042 | 764.098 | 1168.4
303.15 K, x1 = 0.5983 | 772.43 | 1183.1
303.15 K, x1 = 0.6536 | 777.279 | 1191.6
303.15 K, x1 = 0.7031 | 781.622 | 1199.3
303.15 K, x1 = 0.7452 | 785.267 | 1205.8
303.15 K, x1 = 0.8088 | 790.717 | 1215.5
303.15 K, x1 = 0.8489 | 794.102 | 1221.5
303.15 K, x1 = 0.9007 | 798.491 | 1229.2
303.15 K, x1 = 0.9503 | 802.71 | 1235.8

Reference: the NIST ThermoML archive (doi:10.1016/j.jct.2011.05.003)
